The values below come from patent US20230257383A1, “COMPOUND SERVING AS BTK INHIBITOR, PREPARATION METHOD THEREFOR, AND USE THEREOF” (CHENGDU HYPERWAY PHARMACEUTICALS CO., LTD., priority 2020, published 2023).

The subject of series [1] is DOHH-2-luc tumor cells in the mouse brain. The experiment in a line: DOHH-2-Luc intracerebral tumor drug efficacy model test. The class given is in vivo. As to conditions: for inhibitory effect against the tumor compared with Tirabrutinib: DOHH2 tumor model in the mouse brain, same dose of 30 mg/kg (BID), FIG. 3; for fluorescence image of brain tumor (red area = tumor size): DOHH-2-Luc intracerebral model, same dose, FIG. 4; for side effects: mouse, 30 mg/kg (BID), after 21 days of administration. The protocol: Test Example 8: DOHH-2-Luc Intracerebral Tumor Drug Efficacy Model Test
DOHH-2-luc tumor cells were cultured in vitro with RPMI 1640 medium containing 10% fetal bovine serum and 500 ng/mL puromycin in a 37° C., 5% CO2 incubator. […] Tumor cells in logarithmic growth phase were used for inoculation of tumors in vivo.
2. Inoculation of Tumor Cell and Grouping
After the animal was anesthetized by intramuscular injection of Zoletil, it was fixed on the operating table in a prone position. The skin on the top of the head was disinfected with iodine and 75% alcohol respectively, and the skin was cut about 0.5 cm along the midline of the head to expose the coronal and sagittal lines. Being located about 0.5-1.0 mm above the coronal line and about 2 mm to the right of the sagittal line by using a brain locator, a hole was drilled with a 1 mL syringe needle. The micro-injector was inserted vertically to a depth of 3 mm at the location, slowly (about 1 min) injected with 3×10^5 DOHH-2-luc tumor cells/2 μL suspension and kept for 1 min. After pulling out the needle, the needle hole was quickly sealed with bone wax, and the wound was sutured with a stapler. About the 7th day after tumor inoculation, the animals were randomly divided into 5 groups according to the body weight of the animals and the optical signal intensity of the tumor site, with 5 animals in each group.
The mice were imaged 1-2 times a week according to their state using the small animal in vivo imaging system IVIS Lumina III (Perkin Elmer). The bioluminescence imaging (BLI, unit: photons/s) signal intensity at the tumor cell inoculation site of mouse was monitored as the main indicator for evaluating tumor growth and drug efficacy. The specific operation is as follows:
The mice were intraperitoneally injected with D-luciferin (15 mg/mL, 5 μL/g according to the body weight of the experimental animal), and then inhaled anesthetized with 1%-2% isoflurane. 10 min after the injection of D-luciferin, the animals were imaged with IVIS Lumina III. The data were analyzed and processed using Living Image software (Perkin Elmer), and the optical signal intensity in ROI (regions of interest) of each animal was calculated.

Series [2] concerns TMD8 cell proliferation. Put plainly: In vitro cell proliferation inhibitory activity test (CTG), TMD8. The format is cell-based. As to conditions: Homo sapiens, TMD8, 72 h, TMD8 cells. An outline of the steps:
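Cells in 1640 medium with 10% FBS were plated overnight, then exposed for 72 h at 37 °C to 9 threefold dilutions from a 2 mM DMSO working stock, with 0.5% DMSO as the high control. CellTiter-Glo luminescence was read, and % inhibition was scaled to the DMSO and cell-free wells. IC50 came from a four-parameter nonlinear fit.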

Series [3] in a line: Pharmacokinetic test, oral, SD rats. The format is in vivo. The settings on record: rat, plasma, oral 10 mg/kg. The procedure:
Each test compound was administered orally (10 mg/kg, 3 rats in each group) to SD rats for pharmacokinetic study. […] Animals were fasted overnight before oral administration, and fed again after 4 h of administration. […] At each collection time point, 3 whole blood samples were collected at a the collection volume of about 0.2-0.3 mL. […] The collected plasma was stored at −20° C. before analysis. 20 μL of plasma sample was added into a 1.6 mL 96-well deep-well plate, added with 200 μL of working internal standard solution (the same volume of vehicle was added to the blank instead of internal standard), vortexed for 1 min, and centrifuged at 5800 rpm for 10 min. 100 μL of the supernatant was added to a 96-well injection plate for LC-MS/MS analysis.

Regarding `Nc1nccn2c(C3CCC(CO)OC3)nc(-c3ccc(C(F)(F)c4ccccc4)cc3)c12` (single isomer, unassigned) [Example 111-P1], in series [1], the “inhibitory effect against the tumor compared with Tirabrutinib” value is “significantly better inhibitory effect against the tumor than Tirabrutinib”; the “fluorescence image of brain tumor (red area = tumor size)” value is on record as “very good inhibitory effect against the tumor, with almost no red area”; the side effects entry is “no side effects had been found”.
As usually defined, the IC50 is the concentration that gives 50% inhibition. Read a low IC50 as greater potency in that assay. The molecule `Nc1nccn2c(C34CCC(CO)(CC3)OC4)nc(-c3ccc(C(F)(F)c4ccccc4)cc3)c12` [Example 125] had an IC50 in series [2] of 92.4 nM. Further, in series [1], the “inhibitory effect against the tumor compared with Tirabrutinib” value is “significantly better inhibitory effect against the tumor than Tirabrutinib”; the “fluorescence image of brain tumor (red area = tumor size)” value is given as “very good inhibitory effect against the tumor, with almost no red area”; the side effects entry was “no side effects had been found”.
What is called AUC(0-inf) is total exposure, with the tail of the curve extrapolated. A low value points to low exposure. The term Cmax denotes the peak of the concentration-time curve. In the case of `Nc1nccn2c(C34CCC(CO)(CC3)OC4)nc(-c3ccc(C(F)(F)c4ccccc4F)cc3)c12` [Example 145], in series [3], the AUC(0-inf) amounted to 17200 ng·h/mL and the maximum concentration (Cmax) was determined as 1550 ng/mL. The half-life in series [3] (read-out: T½ (converted)) was 2.78 h.
